From patent US20100168084A1, “Therapeutic compounds and related methods of use” (priority 2008, published 2010)

Molecular target: T1, sirtuin protein (Homo sapiens, UniProt Q96EB6)
T1 sequence (Q96EB6 2-747 limits assumed): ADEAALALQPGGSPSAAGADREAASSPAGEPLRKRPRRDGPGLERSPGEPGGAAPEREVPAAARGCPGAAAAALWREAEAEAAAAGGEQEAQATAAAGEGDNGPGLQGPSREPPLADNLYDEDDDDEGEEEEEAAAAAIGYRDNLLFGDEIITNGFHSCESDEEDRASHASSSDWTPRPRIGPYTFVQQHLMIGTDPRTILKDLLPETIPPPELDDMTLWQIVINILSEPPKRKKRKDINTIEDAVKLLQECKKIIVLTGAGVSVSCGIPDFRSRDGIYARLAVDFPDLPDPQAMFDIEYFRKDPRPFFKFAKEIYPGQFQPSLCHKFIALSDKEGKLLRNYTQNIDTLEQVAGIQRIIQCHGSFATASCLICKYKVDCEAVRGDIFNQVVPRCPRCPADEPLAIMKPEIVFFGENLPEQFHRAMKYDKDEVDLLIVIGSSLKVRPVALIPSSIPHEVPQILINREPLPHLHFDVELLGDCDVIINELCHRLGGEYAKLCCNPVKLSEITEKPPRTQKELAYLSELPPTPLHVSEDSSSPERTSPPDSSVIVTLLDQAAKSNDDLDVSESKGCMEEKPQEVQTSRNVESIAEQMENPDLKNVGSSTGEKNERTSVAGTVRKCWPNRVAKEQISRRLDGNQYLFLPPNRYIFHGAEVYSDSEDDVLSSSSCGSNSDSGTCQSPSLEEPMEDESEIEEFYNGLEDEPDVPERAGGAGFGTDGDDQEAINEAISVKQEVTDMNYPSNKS
Assay: MS assay (IC50 MS ASSAY / ED50 MS / FOLD ACTIVATION MS)
Type: biochemical
Set-up: scale not given here

[1] = Table 4, class symbols, legend not given
[2] = Table 4, class symbols A′, A, B, D, NA, legend not given
[3] = MS assay, class symbols A′, A, B, D, NA, legend not given

Measured: ED50 MS ASSAY

COc1cc(C(=O)Nc2ccccc2-c2cn3cc(CN(C)C)sc3n2)cc(OC)c1OC [Compound 179]
A′: TABLE 4 | Table 4 | [1] | class symbols, no key given

COc1ccc(C(=O)Nc2cccc(-c3nc4cccnc4[nH]3)c2)c(OC)c1OC [Compound 181]
A′: TABLE 4 | Table 4 | [1] | class symbols, no key given

COc1cc(C)ccc1C(=O)Nc1cccc(-c2nc3cccnc3[nH]2)c1 [Compound 182]
A′: TABLE 4 | Table 4 | [1] | class symbols, no key given

COc1ccc(C(=O)Nc2cccc(-c3nc4ncccc4[nH]3)c2)c(OC)c1 [Compound 184]
A′: TABLE 4 | Table 4 | [1] | class symbols, no key given

COc1ccc(C(=O)Nc2cccc(-c3nc4cccnc4[nH]3)c2)cc1OC [Compound 185]
A′: TABLE 4 | Table 4 | [1] | class symbols, no key given

COc1ccc(C(=O)Nc2ccc(-c3cc4cccnc4o3)cc2)c(OC)c1 [Compound 190]
A′: TABLE 4 | Table 4 | [1] | class symbols, no key given

COc1ccc(C(=O)Nc2cccc(-c3cc4cccnc4o3)c2)c(OC)c1 [Compound 191]
A′: TABLE 4 | Table 4 | [1] | class symbols, no key given

COc1cc(C)ccc1C(=O)Nc1cccc(-c2nc3ncccc3s2)c1 [Compound 199]
A′: TABLE 4 | Table 4 | [1] | class symbols, no key given

CN(C)c1cccc(C(=O)Nc2cccc(-c3nc4ncccc4s3)c2)c1 [Compound 200]
A′: TABLE 4 | Table 4 | [1] | class symbols, no key given

COc1ccc(C(=O)Nc2cccc(-c3nc4ncccc4s3)c2)c(OC)c1 [Compound 202]
A′: TABLE 4 | Table 4 | [1] | class symbols, no key given

COc1ccc(C(=O)Nc2ccccc2-c2cn3ccsc3n2)cc1OC [Compound 203]
A′: TABLE 4 | Table 4 | [1] | class symbols, no key given

COc1cc(C(=O)Nc2ccccc2-c2cn3ccsc3n2)cc(OC)c1OC [Compound 204]
A′: TABLE 4 | Table 4 | [1] | class symbols, no key given

COc1ccc(C(=O)Nc2cccc(-c3nc4ccccc4[nH]3)c2)c(OC)c1 [Compound 211]
A′: TABLE 4 | Table 4 | [1] | class symbols, no key given

COc1ccc(C(=O)Nc2cccc(-c3nc4cccnc4s3)c2)c(OC)c1 [Compound 213]
A′: TABLE 4 | Table 4 | [1] | class symbols, no key given

COc1cc(OC)cc(C(=O)Nc2cccc(-c3nc4cccnc4s3)c2)c1 [Compound 215]
A′: TABLE 4 | Table 4 | [1] | class symbols, no key given

COc1ccc(C(=O)Nc2cccc(-c3nc4cccnc4s3)c2)cc1 [Compound 216]
A′: TABLE 4 | Table 4 | [1] | class symbols, no key given

COc1cc(C(=O)Nc2cccc(-c3nc4cccnc4s3)c2)cc(OC)c1OC [Compound 217]
A′: TABLE 4 | Table 4 | [1] | class symbols, no key given

COc1cc(C(=O)Nc2cccc(-c3cn4cccnc4n3)c2)cc(OC)c1OC [Compound 218]
A′: Table 4 | [2] | class symbols, no key given

COc1ccc(C(=O)Nc2ccccc2-c2cc3ccccc3[nH]2)cc1OC [Compound 254]
A′: [3] | Table 4 | [2]

COc1cc(C(=O)Nc2ccccc2-c2cc3ccccc3[nH]2)cc(OC)c1OC [Compound 255]
A′: [3] | Table 4 | [2]

COc1cc(C(=O)Nc2cccc(-c3nc4ccccc4[nH]3)n2)cc(OC)c1OC [Compound 259]
A′: [3] | Table 4 | [2]

COc1ccc(C(=O)Nc2cccc(-c3nc4ccccc4[nH]3)n2)cc1OC [Compound 260]
A′: [3] | Table 4 | [2]

COc1ccc(C(=O)Nc2ccc(-c3nc4ccccc4[nH]3)cc2)c(OC)c1 [Compound 262]
A′: [3] | Table 4 | [2]

COc1ccc(C(=O)Nc2ccccc2-c2cn3ccccc3n2)cc1OC [Compound 266]
A′: [3] | Table 4 | [2]

COc1cc(C(=O)Nc2ccccc2-c2cn3ccccc3n2)cc(OC)c1OC [Compound 267]
A′: [3] | Table 4 | [2]

CN(C)c1cccc(C(=O)Nc2ccccc2-c2cn3ccccc3n2)c1 [Compound 268]
A′: [3] | Table 4 | [2]

COc1cc(C(=O)Nc2ccccc2-c2cn3cc(CN4CCNCC4)sc3n2)cc(OC)c1OC [Compound 271]
A′: [3] | Table 4 | [2]

COc1ccc(C(=O)Nc2cccc(-c3nc4cnccc4s3)c2)c(OC)c1 [Compound 272]
A′: [3] | Table 4 | [2]

COc1ccc(C(=O)Nc2ncccc2-c2nc3ccccc3[nH]2)cc1OC [Compound 276]
A′: [3] | Table 4 | [2]

COc1cc(C(=O)Nc2ccccc2-c2nc3ccccc3[nH]2)cc(OC)c1OC [Compound 293]
A′: [3] | Table 4 | [2]
